Data published in ChEMBL document CHEMBL3885861, “Open TG-GATES”.

Organism: Rattus norvegicus
Experiment: Open TG-GATES - Regimen: Daily Repeat
Assay type: toxicity, organism-based, Sprague-Dawley
Design: regimen Daily Repeat, gender Male, age 6 weeks
Conditions: in vivo, po, 300 mg/kg, route gavage, dose level High; for APTT / Bas / Eos / Fbg / Hb / Ht / Lym / MCH / MCHC / MCV / Mono / Neu / PT / Plat / RBC / Ret / WBC: tissue Blood; for KIDNEY_L / KIDNEY_R / KIDNEY_TOTAL: tissue Kidney; for LIVER: tissue Liver; for ALP / ALT / AST / BUN / CRE / DBIL / GLC / IP / K / LDH / Na / PL / RALB / TBIL / TC / TG / TP / gamma-GTP: tissue Plasma

`Clc1ccccc1CN1CCc2sccc2C1` [TICLOPIDINE] gave a TERMINAL_BW (72 h, time 3 day) of 211.5 g, an APTT (72 h, time 3 day) of 25.4 s and a Bas (72 h, time 3 day) of 0.6%. For the same compound, the Eos (72 h, time 3 day) was 0.8%, the Fbg (72 h, time 3 day) was 212.6 mg/dL and the Hb (72 h, time 3 day) was 13.7 g/dL. For the same compound, the Ht (72 h, time 3 day) was 38.5%, the Lym (72 h, time 3 day) was 84% and the MCH (72 h, time 3 day) was 21.4 pg. For the same compound, the MCHC (72 h, time 3 day) was 35.5%, the MCV (72 h, time 3 day) was 60.1 fL and the Mono (72 h, time 3 day) was 2.6%. It also gave a Neu (72 h, time 3 day) of 11.2%, a PT (72 h, time 3 day) of 12.4 s and a Plat (72 h, time 3 day) of 149.4 x10_4/uL. The RBC (72 h, time 3 day) was 640.4 x10_4/ul, the Ret (72 h, time 3 day) was 3.5% and the WBC (72 h, time 3 day) was 84 x10_2/uL. The KIDNEY_L (72 h, time 3 day) was 1.1 g, the KIDNEY_R (72 h, time 3 day) was 1 g and the KIDNEY_TOTAL (72 h, time 3 day) was 2.1 g. It also gave an LIVER (72 h, time 3 day) of 13 g, an ALP (72 h, time 3 day) of 1140 IU/L and an ALT (72 h, time 3 day) of 40.2 IU/L. It also gave an AST (72 h, time 3 day) of 68.6 IU/L, a BUN (72 h, time 3 day) of 13.8 mg/dL and a CRE (72 h, time 3 day) of 0.4 mg/dL. For the same compound, the DBIL (72 h, time 3 day) was 0.084 mg/dL, the GLC (72 h, time 3 day) was 175.4 mg/dL and the IP (72 h, time 3 day) was 7 mg/dL. It also gave a K (72 h, time 3 day) of 4 meq/L, an LDH (72 h, time 3 day) of 134.6 IU/L and a Na (72 h, time 3 day) of 142 meq/L. The PL (72 h, time 3 day) was 163.2 mg/dL, the RALB (72 h, time 3 day) was 3.2 g/dL and the TBIL (72 h, time 3 day) was 0.1 mg/dL. The TC (72 h, time 3 day) was 93 mg/dL, the TG (72 h, time 3 day) was 55.6 mg/dL and the TP (72 h, time 3 day) was 5.2 g/dL. The gamma-GTP (72 h, time 3 day) was 1.6 IU/L, the TERMINAL_BW ([…], time 7 day) was 243.3 g and the TERMINAL_BW ([…], time 14 day) was 287.4 g. The TERMINAL_BW ([…], time 28 day) was 349.5 g, the APTT ([…], time 7 day) was 25.4 s and the Bas ([…], time 7 day) was 0.4%. For the same compound, the Eos ([…], time 7 day) was 1%, the Fbg ([…], time 7 day) was 249.2 mg/dL and the Hb ([…], time 7 day) was 13.3 g/dL. The Ht ([…], time 7 day) was 37.1%, the Lym ([…], time 7 day) was 73.6% and the MCH ([…], time 7 day) was 20.6 pg. The MCHC ([…], time 7 day) was 35.8%, the MCV ([…], time 7 day) was 57.3 fL and the Mono ([…], time 7 day) was 3%. It also gave a Neu ([…], time 7 day) of 20.8%, a PT ([…], time 7 day) of 12.5 s and a Plat ([…], time 7 day) of 141.7 x10_4/uL. It also gave an RBC ([…], time 7 day) of 646.4 x10_4/ul, a Ret ([…], time 7 day) of 4.9% and a WBC ([…], time 7 day) of 116.7 x10_2/uL. The APTT ([…], time 14 day) was 27.3 s, the Bas ([…], time 14 day) was 0.6% and the Eos ([…], time 14 day) was 1%. For the same compound, the Fbg ([…], time 14 day) was 229.6 mg/dL, the Hb ([…], time 14 day) was 14.1 g/dL and the Ht ([…], time 14 day) was 39.4%. For the same compound, the Lym ([…], time 14 day) was 82.4%, the MCH ([…], time 14 day) was 20.9 pg and the MCHC ([…], time 14 day) was 35.9%. For the same compound, the MCV ([…], time 14 day) was 58.1 fL, the Mono ([…], time 14 day) was 2.2% and the Neu ([…], time 14 day) was 12.8%. For the same compound, the PT ([…], time 14 day) was 12.5 s, the Plat ([…], time 14 day) was 123 x10_4/uL and the RBC ([…], time 14 day) was 679 x10_4/ul. It also gave a Ret ([…], time 14 day) of 4.4%, a WBC ([…], time 14 day) of 118.3 x10_2/uL and an APTT ([…], time 28 day) of 22.4 s. For the same compound, the Bas ([…], time 28 day) was 0.8%, the Eos ([…], time 28 day) was 1.4% and the Fbg ([…], time 28 day) was 261.8 mg/dL. It also gave a Hb ([…], time 28 day) of 14.8 g/dL, a Ht ([…], time 28 day) of 39.8% and a Lym ([…], time 28 day) of 77.4%. The MCH ([…], time 28 day) was 19.7 pg, the MCHC ([…], time 28 day) was 37.1% and the MCV ([…], time 28 day) was 53.3 fL. For the same compound, the Mono ([…], time 28 day) was 2.4%, the Neu ([…], time 28 day) was 17.6% and the PT ([…], time 28 day) was 11.8 s. It also gave a Plat ([…], time 28 day) of 108.6 x10_4/uL, an RBC ([…], time 28 day) of 747.8 x10_4/ul and a Ret ([…], time 28 day) of 3.2%. It also gave a WBC ([…], time 28 day) of 125.4 x10_2/uL, a KIDNEY_L ([…], time 7 day) of 1.1 g and a KIDNEY_R ([…], time 7 day) of 1.1 g. The KIDNEY_TOTAL ([…], time 7 day) was 2.2 g, the KIDNEY_L ([…], time 14 day) was 1.3 g and the KIDNEY_R ([…], time 14 day) was 1.3 g. The KIDNEY_TOTAL ([…], time 14 day) was 2.6 g, the KIDNEY_L ([…], time 28 day) was 1.5 g and the KIDNEY_R ([…], time 28 day) was 1.5 g. The KIDNEY_TOTAL ([…], time 28 day) was 3.1 g, the LIVER ([…], time 7 day) was 14.1 g and the LIVER ([…], time 14 day) was 16.6 g. The LIVER ([…], time 28 day) was 20 g, the ALP ([…], time 7 day) was 768.8 IU/L and the ALT ([…], time 7 day) was 49.8 IU/L. The AST ([…], time 7 day) was 78 IU/L, the BUN ([…], time 7 day) was 15.8 mg/dL and the CRE ([…], time 7 day) was 0.4 mg/dL. The DBIL ([…], time 7 day) was 0.084 mg/dL, the GLC ([…], time 7 day) was 172.6 mg/dL and the IP ([…], time 7 day) was 7.3 mg/dL. The K ([…], time 7 day) was 4.1 meq/L, the LDH ([…], time 7 day) was 186 IU/L and the Na ([…], time 7 day) was 142.4 meq/L. It also gave a PL ([…], time 7 day) of 222.6 mg/dL, an RALB ([…], time 7 day) of 3.5 g/dL and a TBIL ([…], time 7 day) of 0.1 mg/dL. It also gave a TC ([…], time 7 day) of 126.8 mg/dL, a TG ([…], time 7 day) of 67.4 mg/dL and a TP ([…], time 7 day) of 6 g/dL. It also gave a gamma-GTP ([…], time 7 day) of 1.8 IU/L, an ALP ([…], time 14 day) of 721.2 IU/L and an ALT ([…], time 14 day) of 35.2 IU/L. It also gave an AST ([…], time 14 day) of 62.4 IU/L, a BUN ([…], time 14 day) of 15.2 mg/dL and a CRE ([…], time 14 day) of 0.4 mg/dL. The DBIL ([…], time 14 day) was 0.08 mg/dL, the GLC ([…], time 14 day) was 201.4 mg/dL and the IP ([…], time 14 day) was 8.4 mg/dL. For the same compound, the K ([…], time 14 day) was 3.9 meq/L, the LDH ([…], time 14 day) was 141 IU/L and the Na ([…], time 14 day) was 142.2 meq/L. The PL ([…], time 14 day) was 182.8 mg/dL, the RALB ([…], time 14 day) was 3.4 g/dL and the TBIL ([…], time 14 day) was 0.1 mg/dL. The TC ([…], time 14 day) was 99.2 mg/dL, the TG ([…], time 14 day) was 53.6 mg/dL and the TP ([…], time 14 day) was 6 g/dL. The gamma-GTP ([…], time 14 day) was 2.4 IU/L, the ALP ([…], time 28 day) was 578.4 IU/L and the ALT ([…], time 28 day) was 47 IU/L. For the same compound, the AST ([…], time 28 day) was 67.6 IU/L, the BUN ([…], time 28 day) was 16.8 mg/dL and the CRE ([…], time 28 day) was 0.5 mg/dL. For the same compound, the DBIL ([…], time 28 day) was 0.086 mg/dL, the GLC ([…], time 28 day) was 197 mg/dL and the IP ([…], time 28 day) was 7.9 mg/dL. For the same compound, the K ([…], time 28 day) was 4 meq/L, the LDH ([…], time 28 day) was 196.6 IU/L and the Na ([…], time 28 day) was 141.6 meq/L. For the same compound, the PL ([…], time 28 day) was 206 mg/dL, the RALB ([…], time 28 day) was 3.7 g/dL and the TBIL ([…], time 28 day) was 0.1 mg/dL. It also gave a TC ([…], time 28 day) of 116.4 mg/dL, a TG ([…], time 28 day) of 62.4 mg/dL and a TP ([…], time 28 day) of 6.5 g/dL. For the same compound, the gamma-GTP ([…], time 28 day) was 2.6 IU/L.
